1 compound from article PMC11233931, “Remodeling tumor‐associated macrophage for anti‐cancer effects by rational design of irreversible inhibition of mitogen‐activated protein kinase‐activated protein kinase 2” (MedComm, 2024) can be followed below.

Test [1] deals with p38. Nature of the test: Eurofins kinase selectivity profile, p38. It is filed as biochemical, human. Here is the method:
(§1) Subsequently, to ascertain whether the high potency of compound 11 was specific for MK2, an additional 380 human recombinant protein kinases were screened.
(§2) To assess the impact of various compounds on MK2 kinase activity, we utilized the ADP‐Glo Assay Kit (Promega) following the manufacturer's instructions. Luminescence measurements were taken using a SpectraMax Paradigm reader. The inhibition percentage was calculated using the following formula: ((specific signalDMSO control − specific signal inhibitor)/(specific signalDMSO control)) × 100%. The IC50 values were determined employing dose–response curve fitting via Prism (Graph Pad). Additionally, Eurofins company (Celle Lévescault) conducted the analysis on compound 11’s inhibitory activity against 380 other human recombinant kinases at various concentrations.

The target in test [2] is T1, p38 (Homo sapiens, UniProt P53778).
T1 construct: purchased Eurofins (Celle Lévescault)
T1 sequence (P53778 1-367): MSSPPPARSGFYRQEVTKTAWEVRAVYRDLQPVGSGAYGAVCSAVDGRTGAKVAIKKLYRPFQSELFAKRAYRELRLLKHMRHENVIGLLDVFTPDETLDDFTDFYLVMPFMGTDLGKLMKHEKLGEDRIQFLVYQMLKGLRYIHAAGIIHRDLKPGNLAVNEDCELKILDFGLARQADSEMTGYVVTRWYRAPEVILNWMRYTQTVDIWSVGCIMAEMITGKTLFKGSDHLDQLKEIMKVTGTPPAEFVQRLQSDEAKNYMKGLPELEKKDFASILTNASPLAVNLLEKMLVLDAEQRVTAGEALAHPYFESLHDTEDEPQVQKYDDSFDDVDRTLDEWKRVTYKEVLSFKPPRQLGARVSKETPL
The experiment in a line: Eurofins kinase selectivity profile, p38. It is filed as biochemical. The following applies: p38-gamma/SAPK3(h), read-out: Inhibition rate (%). How it is done:
as §1, §2

Test [3] addresses T2, p38 (Homo sapiens, UniProt Q16539).
T2 construct: purchased Eurofins (Celle Lévescault)
Nature of the test: Eurofins kinase selectivity profile, p38. It is filed as biochemical. How it is done:
as §1, §2

The target in test [4] is T3, p38 (Homo sapiens, UniProt O15264).
T3 construct: purchased Eurofins (Celle Lévescault)
T3 sequence (O15264 1-365): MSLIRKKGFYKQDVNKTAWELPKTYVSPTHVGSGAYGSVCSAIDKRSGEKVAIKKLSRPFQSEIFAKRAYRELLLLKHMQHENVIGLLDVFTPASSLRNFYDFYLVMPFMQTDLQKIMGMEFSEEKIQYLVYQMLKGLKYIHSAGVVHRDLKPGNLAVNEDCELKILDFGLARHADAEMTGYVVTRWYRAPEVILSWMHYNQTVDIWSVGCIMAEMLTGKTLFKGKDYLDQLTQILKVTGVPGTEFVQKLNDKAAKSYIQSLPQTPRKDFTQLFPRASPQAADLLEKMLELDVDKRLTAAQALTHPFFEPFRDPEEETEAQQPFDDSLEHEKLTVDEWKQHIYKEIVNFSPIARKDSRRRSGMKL
The experiment in a line: Eurofins kinase selectivity profile, p38. It is filed as biochemical. To be noted: p38-delta/SAPK4(h), read-out: Inhibition rate (%). How it is done:
as §1, §2

For test [5], the target named is T4, p38 (Homo sapiens, UniProt Q15759).
T4 construct: purchased Eurofins (Celle Lévescault)
T4 sequence (Q15759 whole entry): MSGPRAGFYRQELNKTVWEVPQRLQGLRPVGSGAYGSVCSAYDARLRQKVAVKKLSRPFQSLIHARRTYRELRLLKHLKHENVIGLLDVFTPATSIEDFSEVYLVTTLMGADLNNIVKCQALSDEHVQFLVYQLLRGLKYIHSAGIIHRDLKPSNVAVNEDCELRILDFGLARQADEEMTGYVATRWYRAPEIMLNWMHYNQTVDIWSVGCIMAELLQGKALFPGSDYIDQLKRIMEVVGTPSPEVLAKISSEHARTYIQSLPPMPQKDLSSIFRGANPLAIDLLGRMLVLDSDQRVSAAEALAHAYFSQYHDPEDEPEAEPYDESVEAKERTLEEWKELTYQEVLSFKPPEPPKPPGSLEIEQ
The experiment in a line: Eurofins kinase selectivity profile, p38. It is filed as biochemical. The following applies: p38-beta/SAPK2b(h), read-out: Inhibition rate (%). How it is done:
as §1, §2

Test [6] concerns MRC1 and ARG-1 mRNA in bone marrow-derived macrophages (BMDM). Nature of the test: RT-PCR of M2 markers in IL-4/IL-13 stimulated BMDM. In kind it is cell-based, mouse. To be noted: IL-4/IL-13 20 ng/mL. From the text:
A previous study has reported that MK2 fostered M2‐like polarization of TAMs, driving a protumor and proangiogenic phenotype which in turn accelerates tumor progression.[21] We thus assessed the influence of compound 11 on macrophage polarization and function. Our experiments used human THP‐1 monocyte induced macrophages, mouse RAW264.7 macrophages, and mouse bone marrow‐derived macrophages (BMDM). These cells were induced into M2‐like macrophages using the classic IL‐4 and IL‐13 stimuli.
FIGURE 5 Inhibition of pro‐tumorigenic M2‐like polarization in macrophages by compound 11. (A–C) RT‐PCR analysis highlights the impact of compound 11 on MRC1 and ARG‐1 mRNA expression in various macrophage cells treated with IL‐4/IL‐13 alone or combined with compound 11 for 12 h or 24 h. […] Data are shown as the mean ± SD. ^* p < 0.05; ^*** p < 0.001 versus the vehicle group, determined by unpaired t test. […]
Total RNA was extracted from cultured cells using the EZ‐press RNA Purification Kit (EZBioscience). Complementary DNA was synthesized using the ABScript III RT Master Mix for qPCR with gDNA remover (ABclonal Technology) and was quantified with primers listed in Table S5. The relative mRNA expression levels were quantified through qPCR using the SYBR green gene expression assay (ABclonal Technology).

The target of test [7] is T5, FGFR4 (Homo sapiens, UniProt P22455).
T5 construct: purchased Eurofins (Celle Lévescault)
T5 sequence (P22455 22-802): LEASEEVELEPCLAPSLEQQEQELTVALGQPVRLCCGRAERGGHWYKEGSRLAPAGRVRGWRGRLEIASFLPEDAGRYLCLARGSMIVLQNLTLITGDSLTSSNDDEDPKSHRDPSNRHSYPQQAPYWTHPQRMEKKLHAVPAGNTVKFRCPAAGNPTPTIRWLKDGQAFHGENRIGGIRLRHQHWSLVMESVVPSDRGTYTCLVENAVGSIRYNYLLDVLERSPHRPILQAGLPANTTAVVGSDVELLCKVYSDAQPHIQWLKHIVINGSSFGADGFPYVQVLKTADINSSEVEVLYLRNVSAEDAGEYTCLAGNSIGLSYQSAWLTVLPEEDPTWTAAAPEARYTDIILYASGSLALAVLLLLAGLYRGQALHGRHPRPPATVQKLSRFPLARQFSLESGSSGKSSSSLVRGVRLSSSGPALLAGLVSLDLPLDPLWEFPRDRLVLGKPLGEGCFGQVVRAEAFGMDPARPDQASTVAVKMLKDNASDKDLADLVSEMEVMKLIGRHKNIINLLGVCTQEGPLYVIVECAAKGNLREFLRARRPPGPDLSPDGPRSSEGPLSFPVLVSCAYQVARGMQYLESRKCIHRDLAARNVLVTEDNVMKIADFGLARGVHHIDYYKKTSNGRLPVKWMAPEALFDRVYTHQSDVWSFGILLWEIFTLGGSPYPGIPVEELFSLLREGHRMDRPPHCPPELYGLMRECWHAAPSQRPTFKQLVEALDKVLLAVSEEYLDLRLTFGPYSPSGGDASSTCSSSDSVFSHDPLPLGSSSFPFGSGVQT
The experiment in a line: Eurofins kinase selectivity profile, FGFR4. In kind it is biochemical. How it is done:
as §1, §2

Read-outs that look alike come from different tables or passages of the source.

T2 sequence (Q16539 2-360): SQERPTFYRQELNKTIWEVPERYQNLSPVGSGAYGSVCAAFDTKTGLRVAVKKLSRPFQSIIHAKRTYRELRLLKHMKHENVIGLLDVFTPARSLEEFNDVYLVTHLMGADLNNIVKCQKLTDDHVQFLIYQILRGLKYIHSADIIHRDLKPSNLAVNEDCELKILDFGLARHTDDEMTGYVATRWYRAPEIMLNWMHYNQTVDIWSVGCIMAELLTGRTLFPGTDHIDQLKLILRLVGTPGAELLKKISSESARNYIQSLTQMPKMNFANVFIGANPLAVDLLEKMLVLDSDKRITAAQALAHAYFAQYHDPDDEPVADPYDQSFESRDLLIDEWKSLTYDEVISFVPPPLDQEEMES

For the compound `C=CC(=O)Nc1cc(-c2cc(-c3cc4c([nH]3)CCNC4=O)ccn2)ccc1OC(F)(F)F` [compound 11], the “selectivity for MK2 over p38” value in test [1] is “over 434 fold”. For the same compound, the inhibition at 0.01 µM in test [2] (10 nM) was 5%; in test [3] (p38-alpha/SAPK2a(h), 10 nM, read-out: Inhibition rate), 0%; in test [4] (10 nM) it was -3%; in test [5] (10 nM) it was -7%; in test [7] (FGFR4(h), 10 nM, read-out: Inhibition rate), 0%. Also, the inhibition at 0.1 µM in test [2] (100 nM) was 2%; in test [3] (p38-alpha/SAPK2a(h), 100 nM, read-out: Inhibition rate), -3%; in test [4] (100 nM) it was -6%; in test [5] (100 nM), -11%; in test [7] (FGFR4(h), 100 nM, read-out: Inhibition rate), -5%. The inhibition at 1 µM in test [2] (1000 nM) is 20%; in test [3] (1 µM, read-out: inhibition rate on p38 kinase), less than 10%; in test [3] (p38-alpha/SAPK2a(h), 1000 nM, read-out: Inhibition rate) it was -5%; in test [4] (1000 nM), 8%; in test [5] (1000 nM) it was -4%; in test [7] (FGFR4(h), 1000 nM, read-out: Inhibition rate), -1%. Also, the IC50 in test [3] and in test [7] was greater than 1000 nM in each case. The “effect on transcriptional level of MRC1 and ARG-1” value in test [6] is on record as “significantly suppressed”.
